From patent US20240099998A1, “COMPOSITIONS AND METHODS FOR INDUCING DEFECATION” (priority 2021, published 2024)

Key:
[1] = system: anesthetized naïve (spinal intact) rats, rectal pressure; test: Rectal (colorectal) pressure recording via balloon catheter after intrarectal dosing in anesthetized spinal intact rats; assay type: in vivo, rat
Description: General: In vivo studies were performed in anesthetized, spinally intact rats (N=10). Adult male Sprague Dawley rats (Charles River, 250-300 g) were housed at an AAALAC approved facility in cages (2-3/cage) with free access to water and food in a colony room that was maintained on a 12 hr light/12 hr dark cycle 1-2 weeks before the experiment. Rats were anesthetized with urethane (1.2-1.4 g/kg subcutaneous injection). Surgical procedures were then performed with the addition of isoflurane anesthesia (0.05-1.5% in O2) as the full anesthetic effect of urethane takes about 1-2 hrs.
A catheter filled with heparinized saline (30 unit/ml) was inserted into the carotid artery and connected to a pressure transducer for measurement of blood pressure and heart rate. A catheter was inserted into the jugular vein for intravenous (i.v.) administration of drugs.
Colorectal Contractility: Colorectal pressures were measured via a latex balloon catheter (length 2-3 cm) inserted (˜3-4 cm) into the distal colorectal region. The catheter was connected to a pressure monitoring system. The pressure in the balloon catheter was slowly increase to 10-15 mmHg by infusing saline (0.2-0.5 ml total volume) and this pressure was maintained throughout the study. This allowed drug induced changes in colorectal pressure to be monitored. Parameters measured include peak colorectal pressure response, duration of time above baseline activity (in the 1st 5 min after drug administration), area under the curve (measured during the 1st 5 min after drug administration) and the number of contractile events after vehicle and drug administration.
Dosing: Intrarectal TRPV1 agonists were administered in a dose range of 0.01-2% wt/vol. Nonivamide, OEA, OLDA and capsaicin were dissolved in 95% ethanol at 20-100 mg/mL and then diluted to 0.01-2% with the vehicle (Tween-80:95% ethanol:saline in a ratio of 10:10:80) and administered intrarectally as a solution using a small gauge tube, or a solution soaked cotton wool plug, to mimic a suppository-like dosage form.
Methods: The TRPV1 receptor agonist nonivamide was administered to anesthetized spinal intact male rats (N=6) instrumented for rectal pressure recording via a balloon catheter inserted into the rectum 3-4 cm from the anus. A 0.1% solution (0.2 mL of a 1 mg/ml solution in Tween-80:ethanol:saline (ratio 10:10:80)) of nonivamide was administered via a 20 gauge feeding tube that was inserted ˜2 cm into the rectum. For comparison, vehicle (Tween-80:ethanol:saline in a ratio of 10:10:80) was administered using the same techniques.
Methods: The TRPV1 receptor agonist nonivamide was administered to anesthetized spinal intact male rats instrumented for rectal pressure recording via a balloon catheter inserted into the rectum 3-4 cm from the anus. A 1% solution (0.2 mL of a 10 mg/ml solution in Tween-80:ethanol:saline (ratio 10:10:80)) of nonivamide was administered via a 20 gauge feeding tube that was inserted 2-3 cm into the rectum.
Methods: Nonivamide was administered to a naive anesthetized male rat instrumented for rectal pressure recording via a balloon catheter inserted into the rectum 2-4 cm from the anus. To mimic a suppository dosage form, nonivamide (1%) was administered via a fluid-soaked small cotton wool plug. The cotton wool plug was placed into the anal canal at the distal rectum.
Methods: OAE (N=4) was administered to anesthetized naïve male rats (N=5) instrumented for rectal pressure recording via a balloon catheter inserted into the rectum 3-4 cm from the anus. OEA was administered as 0.01-0.2% solution (0.2 mL of a […] solution in Tween-80:95% ethanol:saline (ratio 10:10:80)) via a small cotton wool plug soaked in 0.2 mL of solution, to mimic a suppository dosage form, that was inserted into the rectum. For comparison, vehicle was administered to all rats using the same techniques. […]

[2] = system: conscious dogs, colon; conditions: intracolonic administration; cited from earlier work
[3] = system: conscious spinal intact rats, defecation; test: Defecation in conscious rats monitored in metabolism cages after intrarectal dosing; assay type: in vivo, rat
Description: Defecation in awake animals was monitored in metabolism cages. Animals were habituated to handling and the metabolism cages on 2-4 occasions prior to dosing and were then randomized to a treatment arm. Rats were weighed and placed into metabolism cages for 10 min prior to intrarectal administration of vehicle or TRPV1 agonist. The number of fecal pellets and timing of events were recorded by trained personnel that were blinded to treatment. Fecal weight was weighed at 20 min post dosing.
Defecation in conscious rats was monitored in metabolism cages. Rats were habituated to handling and the metabolism cages on 2-4 occasions before dosing, then randomized to the treatment arm. Rats were weighed and placed into metabolism cages for 10 min prior to receiving an intrarectal dose of vehicle or capsaicin. Since manual stimulation during intrarectal dosing in conscious rats can induce defecation, palpation of the distal rectum was performed to remove any fecal pellets located in the region of the anal sphincter. […] Once the anal sphincter had ceased contracting/relaxing (15-90 s) a fine catheter (22 G soft/flexible blunt tip catheter) was used to dose the vehicle or capsaicin, as this method produced little manual stimulation. Capsaicin was prepared as a 0.01, 0.1 or 1% solution (0.1, 1 or 10 mg/ml in tween-80/ethanol/saline (ratio of 10/10/80) or vehicle. Dose volumes were 0.1 mL and administered via the catheter inserted ˜1 inch through the anus into the rectum. The number of fecal pellets and timing of events were recorded by trained personnel blinded to the treatment. Fecal weight was recorded at 20 min post dosing.

[4] = system: rectal afferent terminals; conditions: human subjects; cited from earlier work
[5] = system: anesthetized acute T9-transected SCI rat, rectal pressure; test: Rectal pressure recording in anesthetized acute spinal cord injured (SCI) rat; assay type: in vivo; conditions: cotton ball suppository soaked in 50 uL of 0.2% solution, acute T9-transected SCI female rat
Description: For the acute SCI model, animals were anesthetized with urethane (1.0-1.4 g/kg subcutaneous injection), the skin and muscle on the dorsal side at the level of the thoracic vertebrae were incised, and the spinal cord was carefully exposed by a laminectomy and transected at T8-T10 spinal level. Gelfoam^R was placed at the incision site and the muscle and skin overlying the vertebrae were closed with wound clips. The spinal cord was transected at least 60 min before starting the experimental protocol.
For all rectal contractility studies, animals were anesthetized with urethane (1.0-1.4 g/kg subcutaneous injection). […]
Rectal Contractility: Rectal pressures were measured via a latex balloon catheter (length 1.5-4 cm) inserted (˜4 cm) into the distal rectal region. […] Parameters measured included peak rectal pressure response, duration of time above baseline activity (in the 1st 5 min after drug administration), area under the curve (measured during the 1st 5 min after drug administration) and the number of contractile events after vehicle and drug administration.
Methods: Capsaicin was administered to 2 anesthetized female rats instrumented for rectal pressure recording via a balloon catheter inserted into the rectum 2-4 cm from the anus. […] Top and bottom traces in FIG. 9 were recorded from individual female rats.

[6] = 0.2% solution, 0.05-0.32 mL intrarectal
[7] = cotton ball suppository soaked in 50 uL of 0.2% solution, spinal intact naïve female rat
[8] = cotton wool plug (1% in FIG. 7A), intrarectal, N=3
[9] = intrarectal solution, conscious rats
[10] = 0.1% solution, 0.2 mL intrarectal
[11] = 1% solution, 0.2 mL intrarectal
[12] = 0.01-0.2% solution, cotton wool plug soaked in 0.2 mL, intrarectal
[13] = cotton wool plug soaked in 0.2 mL of 0.2% solution
[14] = 0.2%, cotton wool plug soaked in 0.2 mL, N=1

COc1cc(CNC(=O)CCCC/C=C/C(C)C)ccc1O [Capsaicin]
duration of rectal pressure increase [1, 6]: 5 min
onset time of rectal pressure increase [1, 6]: 1 to 2 min
rats with transient rectal pressure increase ([1]; 0.2% solution, 0.05-0.32 mL intrarectal via PE50 tube, 4 males and 1 female): 5 of 5
peak colorectal pressure ([1]; 1% soaked cotton wool plug, FIG. 7A, example of one male rat): ~40 mmHg
duration of rectal pressure increase [1, 7]: < 5 min
onset of rectal pressure increase [1, 7]: < 2 min
duration of increase in colorectal pressure [1, 8]: < 5 min
onset of increase in colorectal pressure [1, 8]: < 1 min
effect on colon and defecation [2]: initiate defecation
number of fecal pellets expelled compared to vehicle ([3]; 1% solution, 0.1 mL intrarectal, 10 min after dosing, N=6, p<0.05): significantly increased
total weight of fecal pellets expelled compared to vehicle ([3]; 1% solution, 0.1 mL intrarectal, 20 min after dosing, N=6, p<0.05): significantly increased
time to completion of defecation [3, 9]: ≤ 10 min
time to defecation [3, 9]: ≤ 5 min
reported sensations after intrarectal administration [4]: an urge to defecate
duration of rectal pressure increase [5]: < 5 min
onset of rectal pressure increase [5]: < 2 min

CCCCCCCCC(=O)NCc1ccc(O)c(OC)c1 [Nonivamide]
duration of rectal pressure increase [1, 10]: 5 min
onset time of rectal pressure increase [1, 10]: 1 to 2 min
rats with transient rectal pressure increase ([1]; 0.1% solution, 0.2 mL intrarectal via feeding tube, male rats): 6 of 6
duration of rectal pressure increase [1, 11]: 5 to 10 min
onset time of rectal pressure increase [1, 11]: 1 to 2 min
rectal response: expulsion of balloon catheter ([1]; cotton wool plug soaked in 0.2 mL of 1% solution): sufficient to expel the balloon catheter
onset of increase in rectal pressure ([1]; cotton wool plug soaked in 0.2 mL of 1% solution, 1 male rat): ≤ 1 min

CCCCCCCC/C=C\CCCCCCCC(=O)NCCO [OEA, Oleoylethanolamide]
duration of rectal pressure increase [1, 12]: 5 to 10 min
onset time of rectal pressure increase [1, 12]: 0.5 to 2 min
defecation in anesthetized rat (FIG. 5) [1, 13]: defecation of fecal pellets
rectal response: expulsion of balloon catheter [1, 13]: sufficient to expel the balloon catheter

CCCCCCCC/C=C\CCCCCCCC(=O)NCCc1ccc(O)c(O)c1 [OLDA, N-Oleoyldopamine]
duration of rectal pressure increase [1, 14]: 5 min
onset time of rectal pressure increase [1, 14]: 0.5 to 2 min
rectal response: expulsion of balloon catheter [1, 13]: sufficient to expel the balloon catheter
